Experiment [1] concerns a variety of test species. As to the kind of experiment: Pre-emergence herbicidal activity (Example 8a, Table 2). The format is in vivo. On the set-up: key: 0 = no damage to plant, 5 = total damage to plant. Particulars: application pre-emergence, rate 1000 g/ha, evaluated after 13 days. An outline of the steps:
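Sow in pots of standard soil; after one day under glasshouse conditions, spray compound (acetone/water 50:50 formulation, 0.5% Tween 20, diluted in water). Grow on at 24/16 °C, 14 h light, 65% humidity with twice-daily watering. Assess at 13 days, 0–5 damage scale.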

In experiment [2] the test system is a variety of test species. Put plainly: Post-emergence herbicidal activity (Example 8b, Table 3). The format is in vivo. Particulars: application post-emergence, rate 1000 g/ha, evaluated after 13 days, scale 0-5; for Herbicidal damage score, ABUTH: Abutilon theophrasti; for Herbicidal damage score, ALOMY: Alopecurus myosuroides; for Herbicidal damage score, AMARE: Amaranthus retroflexus; for Herbicidal damage score, ECHCG: Echinochloa crus-galli; for Herbicidal damage score, SETFA: Setaria faberi; for Herbicidal damage score, ZEAMX: Zea mays. The gist of the method: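 Pot-grown plants, 8 days after sowing, were sprayed with compound formulated in acetone/water (50:50) with 0.5% Tween 20. Glasshouse conditions 24/16° C day/night, 14 h light, 65% humidity; damage scored after 13 days on a 0 (none) to 5 (total) scale.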

With `COC1=C(OC)C(O)N(c2cc(C(F)(F)F)n(C)n2)C1=O` (stereo not drawn) [Compound T2], in experiment [1], the “Pre-emergence herbicidal activity, damage score ABUTH” value worked out at 5; the “Pre-emergence herbicidal activity, damage score ALOMY” value is listed as 4; the “Pre-emergence herbicidal activity, damage score AMARE” value is 4; the “Pre-emergence herbicidal activity, damage score ECHCG” value came out at 5. Also, in experiment [1], the “Pre-emergence herbicidal activity, damage score SETFA” value was 5 and the “Pre-emergence herbicidal activity, damage score ZEAMX” value came out at 4. In addition, in experiment [2], the “Herbicidal damage score, ABUTH” value is listed as 5; the “Herbicidal damage score, ALOMY” value turned out to be 5; the “Herbicidal damage score, AMARE” value is 5; the “Herbicidal damage score, ECHCG” value amounted to 5. In experiment [2], the “Herbicidal damage score, SETFA” value was 5 and the “Herbicidal damage score, ZEAMX” value is given as 5.

Take `COC1=C(OC)C(O)N(c2cc3n(n2)CCC3(C)C)C1=O` (stereo not drawn) [Compound W1]: in experiment [1], the “Pre-emergence herbicidal activity, damage score ABUTH” value is recorded as 5; the “Pre-emergence herbicidal activity, damage score ALOMY” value stood at 4; the “Pre-emergence herbicidal activity, damage score AMARE” value is reported as 5; the “Pre-emergence herbicidal activity, damage score ECHCG” value is 4. Further, in experiment [1], the “Pre-emergence herbicidal activity, damage score SETFA” value was 5 and the “Pre-emergence herbicidal activity, damage score ZEAMX” value is listed as 3. In experiment [2], the “Herbicidal damage score, ABUTH” value was 5; the “Herbicidal damage score, ALOMY” value was found to be 5; the “Herbicidal damage score, AMARE” value is 5; the “Herbicidal damage score, ECHCG” value was found to be 5. In addition, in experiment [2], the “Herbicidal damage score, SETFA” value is reported as 5 and the “Herbicidal damage score, ZEAMX” value turned out to be 5.

`COC1=C(OC)C(O)N(c2cc3n(n2)CCCC3(C)C)C1=O` (stereo not drawn) [Compound W2]: in experiment [1], the “Pre-emergence herbicidal activity, damage score ABUTH” value came out at 5; the “Pre-emergence herbicidal activity, damage score ALOMY” value worked out at 4; the “Pre-emergence herbicidal activity, damage score AMARE” value is listed as 5; the “Pre-emergence herbicidal activity, damage score ECHCG” value is listed as 4. For the same compound, in experiment [1], the “Pre-emergence herbicidal activity, damage score SETFA” value was determined as 5 and the “Pre-emergence herbicidal activity, damage score ZEAMX” value came out at 4. Also, in experiment [2], the “Herbicidal damage score, ABUTH” value is 5; the “Herbicidal damage score, ALOMY” value is given as 5; the “Herbicidal damage score, AMARE” value is on record as 5; the “Herbicidal damage score, ECHCG” value amounted to 5. In experiment [2], the “Herbicidal damage score, SETFA” value came out at 5 and the “Herbicidal damage score, ZEAMX” value is listed as 5.

For the origin of these results see patent US9605004B2, “Chemical compounds” (SYNGENTA LIMITED, priority 2013, dated 2017).
